In US10189788B2, “Substituted N,2-diarylquinoline-4-carboxamides and the use thereof as anti-inflammatory agents” (BAYER PHARMA AKTIENGESELLSCHAFT, priority 2014, dated 2019):

What was measured:
Human FP Receptor [1] = biological target: T1, Human FP Receptor (Homo sapiens (Human), UniProt P43088); test: In vitro test of inhibition of human FP receptor activity, variant B-1A (PGF2α-induced calcium flux in FP-expressing CHEM1 cells); format: cell-based; conditions: calcium flux induced by 3 nM PGF2α, Fluo-8, some mean values from multiple determinations
Excerpt: • BSA bovine serum albumin • CRTH2 chemoattractant receptor-homologous molecule expressed on T helper type 2 cells • DMEM Dulbecco's modified Eagle's medium • DMSO dimethyl sulfoxide • DP PGD2 receptor • EC50 half-maximum effective concentration • em. emission • EP PGE2 receptor • ex. excitation • FCS fetal calf serum • FP PGF2α receptor • HEPES 2-[4-(2-hydroxyethyl)piperazin-1-yl]ethanesulfonic acid • IC50 half-maximum inhibitory concentration • IP PGI2 receptor • MES 2-(N-morpholino)ethanesulfonic acid • Pen/Strep penicillin/streptomycin • PGD2 prostaglandin D2 • PGE2 prostaglandin E2 • PGF2α prostaglandin F2α • PGI2 prostaglandin […] • TC tissue culture • TP thromboxane A2 receptor • Tris tris(hydroxymethyl)aminomethane • v/v volume to volume ratio (of a solution) • w/w weight to weight ratio (of a solution) B-1.

Human FP Receptor [2] = biological target: T1, Human FP Receptor; test: In vitro test of inhibition of human FP receptor activity, variant B-1B (PGF2α-induced calcium flux in recombinant FP-expressing CHO cells with GCaMP6); format: cell-based; conditions: recombinant FP-expressing CHO cells with GCaMP6, calcium flux induced by 3 nM PGF2α, some mean values from multiple determinations
Excerpt: 470 nm/em. 525 nm in a fluorescence measuring instrument (FLIPR Tetra®, MolecularDevices) for 120 seconds.

[3] = eliminated renally; cited from earlier work
[4] = unstable molecule, rearranged enzymatically in lung, liver and kidney to 15-ketodihydro-PGF2α; cited from earlier work

T1 sequence (P43088 whole entry): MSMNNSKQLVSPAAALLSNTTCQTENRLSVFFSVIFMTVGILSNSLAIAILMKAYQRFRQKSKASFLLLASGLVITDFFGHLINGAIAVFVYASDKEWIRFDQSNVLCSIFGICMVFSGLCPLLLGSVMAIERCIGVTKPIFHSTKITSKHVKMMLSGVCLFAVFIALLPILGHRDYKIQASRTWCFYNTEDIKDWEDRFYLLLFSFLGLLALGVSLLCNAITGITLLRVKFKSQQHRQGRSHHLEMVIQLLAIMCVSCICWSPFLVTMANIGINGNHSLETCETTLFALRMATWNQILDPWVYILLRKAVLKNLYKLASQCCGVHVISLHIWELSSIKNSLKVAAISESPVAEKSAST

IC50 (Human FP Receptor [1]) [nM]	IC50 (Human FP Receptor [2]) [nM]	Compound	half-life [3]	t1/2 [4] [min]
131	79	Cc1c(-c2ccccc2)nc2ccc(C(C)(C)C)cc2c1C(=O)Nc1ccc(C(=O)O)cc1F [Example 61, 4-{[(6-tert-Butyl-3-methyl-2-phenylquinolin-4-yl)carbonyl]amino}-3-fluorobenzoic acid]		
239	134	Cc1c(-c2ccccc2)nc2ccc(Br)cc2c1C(=O)Nc1ccc(C(=O)NS(=O)(=O)C(F)(F)F)cc1F [Example 67, 6-Bromo-N-(2-fluoro-4-{[(trifluoromethyl)sulfonyl]carbamoyl}phenyl)-3-methyl-2-phenylquinoline-4-carboxamide]		
		Bleomycin	about 3 hours	
318	182	Cc1c(-c2ccccc2)nc2ccc(Br)cc2c1C(=O)Nc1ccc(C(=O)NS(=O)(=O)N(C)C)cc1F [Example 68, 6-Bromo-N-{4-[(dimethylsulfamoyl)carbamoyl]-2-fluorophenyl}-3-methyl-2-phenylquinoline-4-carboxamide]		
		Prostaglandin F2alpha [PGF2α]		< 1
17	6	COCSc1cc(C(=O)O)ccc1NC(=O)c1c(C)c(-c2ccccc2)nc2ccc(Br)cc12 [Example 52, 4-{[(6-Bromo-3-methyl-2-phenylquinolin-4-yl)carbonyl]amino}-3-[(methoxymethyl)sulfanyl]benzoic acid]		

Compound	IC50 (Human FP Receptor [1]) [nM]	IC50 (Human FP Receptor [2]) [nM]	half-life [3]	t1/2 [4] [min]
Cc1c(-c2ccccc2)nc2ccc(Br)cc2c1C(=O)Nc1ccc(C(=O)O)cc1F [Example 69, Potassium 4-{[(6-bromo-3-methyl-2-phenylquinolin-4-yl)carbonyl]amino}-3-fluorobenzoate]	104	59		
Cc1c(-c2ccccc2)nc2ccc(Br)cc2c1C(=O)Nc1ccc(C(=O)O)cc1F [Example 7, 4-{[(6-Bromo-3-methyl-2-phenylquinolin-4-yl)carbonyl]amino}-3-fluorobenzoic acid]	20	34		
